SMILES strings stand for the structures. Changes are numbered by the printed parent chain.

Experimental findings from article PMC3557166, “'Le Rouge et le Noir': A decline in flavone formation correlates with the rare color of black dahlia (Dahlia variabilis hort.) flowers” (BMC Plant Biology, 2012) are described below.

Test [1] deals with T1, FNS II (cv. Alva's Supreme, GQ479807) (Dahlia pinnata, UniProt G8Z370).
T1 construct: full-length ORF in pYES2.1/V5-His-TOPO, expressed in S. cerevisiae INVSc1
T1 sequence (G8Z370 1-514): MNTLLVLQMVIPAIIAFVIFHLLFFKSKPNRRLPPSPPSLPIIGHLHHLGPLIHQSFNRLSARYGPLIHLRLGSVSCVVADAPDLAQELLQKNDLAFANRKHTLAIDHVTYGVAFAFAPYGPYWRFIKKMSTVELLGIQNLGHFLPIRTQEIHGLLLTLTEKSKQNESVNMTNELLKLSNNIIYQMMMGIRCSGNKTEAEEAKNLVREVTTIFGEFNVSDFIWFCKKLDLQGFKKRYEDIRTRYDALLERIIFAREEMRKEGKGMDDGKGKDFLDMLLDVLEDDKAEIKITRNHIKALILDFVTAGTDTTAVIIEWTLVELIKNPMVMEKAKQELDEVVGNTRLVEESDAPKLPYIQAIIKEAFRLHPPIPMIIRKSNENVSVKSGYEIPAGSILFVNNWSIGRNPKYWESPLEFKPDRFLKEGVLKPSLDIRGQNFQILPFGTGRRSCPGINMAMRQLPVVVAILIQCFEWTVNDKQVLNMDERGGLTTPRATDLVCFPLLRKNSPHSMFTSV
Briefly: […]-flavanone conversion to flavone, TLC radioscan, recombinant yeast preparation. Type of test: biochemical. The conditions noted are these: NADPH; labelled compound.

Test [2] deals with T2, FNS II (cv. Rubens, GQ479809) (Dahlia pinnata, UniProt G8Z372).
T2 construct: full-length ORF in pYES2.1/V5-His-TOPO, expressed in S. cerevisiae INVSc1
T2 sequence (G8Z372 1-513): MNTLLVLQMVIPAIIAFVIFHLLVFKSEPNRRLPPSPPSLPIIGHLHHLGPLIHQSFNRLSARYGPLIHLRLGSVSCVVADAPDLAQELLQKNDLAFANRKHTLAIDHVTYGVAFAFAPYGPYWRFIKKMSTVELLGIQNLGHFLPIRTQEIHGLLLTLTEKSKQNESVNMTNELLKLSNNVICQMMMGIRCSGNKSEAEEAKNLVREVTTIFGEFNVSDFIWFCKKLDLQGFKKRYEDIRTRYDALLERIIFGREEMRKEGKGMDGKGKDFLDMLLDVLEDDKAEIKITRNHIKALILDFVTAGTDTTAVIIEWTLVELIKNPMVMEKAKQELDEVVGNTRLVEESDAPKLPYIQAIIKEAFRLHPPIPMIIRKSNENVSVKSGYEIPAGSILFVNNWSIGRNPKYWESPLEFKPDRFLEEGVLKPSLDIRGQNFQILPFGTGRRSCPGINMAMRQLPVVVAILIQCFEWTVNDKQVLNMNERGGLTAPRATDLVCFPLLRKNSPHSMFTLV
The description is as above. Conditions: NADPH; labelled compound. It counts as biochemical.

The target in test [3] is T3, FNS II (cv. Aurora's Kiss, GQ489010) (Dahlia pinnata, UniProt G3BGL8).
T3 construct: full-length ORF in pYES2.1/V5-His-TOPO, expressed in S. cerevisiae INVSc1
T3 sequence (G3BGL8 1-513): T2 sequence (G8Z372 1-513) with V24F, K162E, S168G, E421K, N482D, A489T, L512S
The description is as above. The conditions noted are these: NADPH; labelled compound. It counts as biochemical.

The target of test [4] is T4, FNS II (cv. White Alva, GQ489011) (Dahlia pinnata, UniProt G3BGL9).
T4 construct: full-length ORF in pYES2.1/V5-His-TOPO, expressed in S. cerevisiae INVSc1
T4 sequence (G3BGL9 1-513): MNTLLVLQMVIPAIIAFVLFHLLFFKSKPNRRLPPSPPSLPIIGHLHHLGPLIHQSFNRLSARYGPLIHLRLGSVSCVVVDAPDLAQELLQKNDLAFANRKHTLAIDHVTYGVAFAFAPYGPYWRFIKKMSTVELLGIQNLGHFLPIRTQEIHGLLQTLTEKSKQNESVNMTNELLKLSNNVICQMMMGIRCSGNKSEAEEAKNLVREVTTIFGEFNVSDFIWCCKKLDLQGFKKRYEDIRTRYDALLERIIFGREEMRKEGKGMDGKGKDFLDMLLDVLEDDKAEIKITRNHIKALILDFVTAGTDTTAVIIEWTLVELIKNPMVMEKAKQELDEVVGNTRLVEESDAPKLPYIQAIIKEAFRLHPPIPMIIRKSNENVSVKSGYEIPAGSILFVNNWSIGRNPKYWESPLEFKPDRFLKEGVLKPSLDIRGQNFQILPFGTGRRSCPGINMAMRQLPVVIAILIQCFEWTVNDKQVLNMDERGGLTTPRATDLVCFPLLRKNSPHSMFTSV
Described as above. It counts as biochemical. The conditions noted are these: NADPH; labelled compound.

Test [5] deals with T5, FNS II (cv. Chat Noir, GQ489008) (Dahlia pinnata, UniProt G3BGL6).
T5 construct: full-length ORF in pYES2.1/V5-His-TOPO, expressed in S. cerevisiae INVSc1
T5 sequence (G3BGL6 1-514): T1 sequence (G8Z370 1-514) with I11V, P83L, Y184C, F499L, L501S
The description is as above. Conditions: NADPH; labelled compound. It counts as biochemical.

Test [6] has as its target T6, FNS II (cv. Feuerschein, GQ479806) (Dahlia pinnata, UniProt G8Z369).
T6 construct: gene DvFNS1; full-length ORF in pYES2.1/V5-His-TOPO, expressed in S. cerevisiae INVSc1
T6 sequence (G8Z369 1-514): T1 sequence (G8Z370 1-514) with Y184C, D266E
Described as above. Conditions: NADPH; labelled compound. It counts as biochemical.

Test [7] relates to T7, recombinant FNS II (cv. Rubens GQ479808 and cv. Chat Noir GQ489009).
T7 construct: full-length ORF in pYES2.1/V5-His-TOPO, expressed in S. cerevisiae INVSc1
Briefly: […]-flavanone conversion to luteolin, TLC radioscan, recombinant yeast preparation. The conditions noted are these: NADPH; pH optimum 7.50; 25-30°C optimum; labelled compound; clone (GQ479808 or GQ489009) not told; read-out: apparent Km. It counts as biochemical, Dahlia pinnata.

For test [8] the test system is unchanged. Briefly: […]-flavanone conversion to apigenin, TLC radioscan, recombinant yeast preparation. It counts as biochemical, Dahlia pinnata. The conditions noted are these: NADPH; pH optimum 6.50; 25-30°C optimum; labelled compound; clone (GQ479808 or GQ489009) not told; read-out: apparent Km.

`O=C1C[C@@H](c2ccc(O)c(O)c2)Oc2cc(O)cc(O)c21` [eriodictyol]: the “14C-flavanone conversion to flavone, TLC radioscan, recombinant yeast preparatio” value in test [1] is “formation of apigenin and luteolin from naringenin and eriodictyol, respectively”; in test [2], “formation of apigenin and luteolin from naringenin and eriodictyol, respectively”; in test [3] it was “formation of apigenin and luteolin from naringenin and eriodictyol, respectively”; in test [4] it was “formation of apigenin and luteolin from naringenin and eriodictyol, respectively”; in test [5], “formation of apigenin and luteolin from naringenin and eriodictyol, respectively”; in test [6] it was “formation of apigenin and luteolin from naringenin and eriodictyol, respectively”. Moreover, the Km in test [7] amounted to 4.2 µM.
`O=C1C[C@@H](c2ccc(O)cc2)Oc2cc(O)cc(O)c21` [naringenin]: the “14C-flavanone conversion to flavone, TLC radioscan, recombinant yeast preparatio” value in test [1] is “formation of apigenin and luteolin from naringenin and eriodictyol, respectively”; in test [2], “formation of apigenin and luteolin from naringenin and eriodictyol, respectively”; in test [3] it was “formation of apigenin and luteolin from naringenin and eriodictyol, respectively”; in test [4], “formation of apigenin and luteolin from naringenin and eriodictyol, respectively”; in test [5], “formation of apigenin and luteolin from naringenin and eriodictyol, respectively”; in test [6] it was “formation of apigenin and luteolin from naringenin and eriodictyol, respectively”. Further, the Km in test [8] came to 3.86 µM.
